Measurements taken from patent publication US20250215105A1, “ANTI-CD39 ANTIBODY” (BrightPath Biotherapeutics Co., Ltd., priority 2022, published 2025).

Columns and labels:
[1] = system: activated Tregs; test: binding to activated Tregs (FACS); set-up: species or system human; conditions: 10 μg/mL
Description: Purchased healthy human PBMCs (Wako Pure Chemicals, 33000-10M) were seeded at 2×10^5 cells/well in a 96 well U-bottom plate and cultured in the presence of 10 IU/mL IL-2 (NIPRO, 87-890) and 20 ng/mL IL-7 (PeproTech, 200-07) for 6 days. After 6 days, all the cells were collected and the Treg population was isolated using a CD4^+CD25^+CD127^dim/− Regulatory T Cell Isolation Kit II, human (Miltenyi, 130-094-775). Isolated Tregs were seeded at 2×10^4 cells/well in ab96 well U-bottom plate and stimulated for 6 days in the presence of 6×10^5 Dynabeads Human T-Activator CD3/CD28 (Gibco, DB11132-D), 10 IU/mL IL-2, and 20 ng/mL IL-7. The medium used was RPMI (Wako Pure Chemicals, 189-02025) supplemented with 10% Human Serum AB (Gemini Bio, 100-512, H46X00K), 1 mM penicillin streptomycin (Nacalai Tesque, 09367-34), 1 mM sodium pyruvate (Gibco, 11360070), 10 mM HEPES (Nacalai Tesque, 17557-94), GlutaMAX (Thermo Fisher, 35050061). 11360070), 10 mM HEPES (Nacalai Tesque, 17557-94), and GlutaMAX (Thermo Fisher, 35050061). After 6 days, Tregs were collected and analyzed for binding of each test antibody by using a FACSVerse. GraphPad Prism 9.2.0 was used for data analysis.

[2] = system: T cells in healthy human PBMCs; test: effects on T cells in cultured healthy PBMCs (cell type analysis, Treg removal, cytotoxic T cell induction); format: cell-based; conditions: healthy PBMCs cultured with antibody for 5 days
Description: Purchased healthy human PBMCs (33000-10, Wako Pure Chemicals) were seeded at 5×10^5 cells/well in a 96 well U-bottom plate and cultured in the presence of 100 IU/mL IL-2 (87-890, NIPRO) and 20 ng/mL IL-7 (200-07, PeproTech) for 5 or 6 days to induce Tregs. The medium was washed out and the cells were cultured in the presence of CMV peptide A02 (TS-0010-1c, MBL), 10 IU/mL IL-2, and 20 ng/mL IL-7 for 11 days to induce antigen-specific cytotoxic T cells. The medium used was RPMI-1640 (189-0202, Wako Pure Chemicals) supplemented with 10% Human Serum AB (100-512, H46X00K, Gemini Bio), 1 mM penicillin streptomycin (09367-34, Nacalai Tesque), 1 mM sodium pyruvate (11360070, Gibco), 10 mM HEPES (17557-9, Nacalai Tesque), 1% GlutaMAX (35050061, Thermo Fisher), and 0.01 mM 2-mercaptoethanol (21438-82, Nacalai Tesque).
FACSVerse (BD) was used for various cell type analyses. Cells were counted using CountBright™ Absolute Counting Beads (C36950, Invitrogen). GraphPad Prism 9.2.0 was used for data analysis.
Substantially the same method as described in the Section 21.1 above was used to check a change in the percentage of various CD39^hi-expressing T cells by each glycan-modified anti-CD39 antibody.

[3] = system: A375 (malignant melanoma cancer cell line); test: cancer cell growth inhibition test with Treg-removed PBMCs; format: cell-based, human; conditions: PBMCs pre-treated with 10 μg/ml antibody for 5 days, co-culture 5 days
Description: Purchased healthy human PBMCs (Wako Pure Chemicals, 33000-10M) were seeded at 5×10^5 cells/well in a 96 well U-bottom plate and cultured in the presence of 100 IU/mL IL-2 (NIPRO, 87-890), 20 ng/mL IL-7 (PeproTech, 200-07), and each test antibody at 10 μg/ml for 5 days. Then, 15,000 cells/well of A375 (malignant melanoma cancer cell line) overexpressing CMV antigen and RFP were mixed with 45,000 cells/well of PBMCs prepared after 5 days of culture, and the mixture was co-cultured at 37° C. and 5% CO2 for 5 days. At this time, the medium used was RPMI-1640 (189-0202, Wako Pure Chemicals) supplemented with 10% Human Serum AB (100-512, H46X00K, Gemini Bio), 1 mM penicillin streptomycin (09367-34, Nacalai Tesque), 1 mM sodium pyruvate (11360070, Gibco), 10 mM HEPES (17557-9, Nacalai Tesque), 1% GlutaMAX (35050061, Thermo Fisher), and 0.01 mM 2-mercaptoethanol (21438-82, Nacalai Tesque). The number of A375 cells was then determined by measuring the fluorescence value of RFP while using a Varioskan LUX multimode microplate reader (Thermo Fisher Scientific). GraphPad Prism 9.2.0 was used for data analysis.

[4] = system: human multiple myeloma-derived cell line MOLP-8; conditions: day 24, last day of the study
Description: The human multiple myeloma-derived cell line MOLP-8 (DMSZ, ACC569) was subcutaneously transplanted (at 5×10^6 cells/mouse) into the right abdomen of each SCID mouse (C.B-17/Icr-scid/scidJcl, female, 7-week-old). On day 10 after transplantation, the mice were divided into groups based on tumor volume. Each antibody was administered in the doses listed in Table 3 twice a week for a total of seven doses starting on the day of grouping. Doxorubicin was administered twice a week for a total of 5 doses, starting 7 days after the grouping date. The tumor diameter and body weight were measured on day 24 after grouping. The tumor weight (n=5) data were analyzed using GraphPad Prism 9.2.0. One-way ANOVA and Tukey multiple comparisons test were used for statistical analysis. A significant difference was assumed when p**≤0.01.

| Compound | ability of binding to activated Tregs [1] | CD39^hiCD4+FoxP3+ Tregs and effector Tregs (Fr. II) [2] | growth of human malignant melanoma A375 [3] | heart weight [4] |
| --- | --- | --- | --- | --- |
| ipilimumab | not strong | significant loss of only effector Tregs (Fr. II) | no inhibitory effect | – |
| COc1cccc2c1C(=O)c1c(O)c3c(c(O)c1C2=O)C[C@@](O)(C(=O)CO)C[C@@H]3O[C@H]1C[C@H](N)[C@H](O)[C@H](C)O1 [doxorubicin] | – | – | – | decreased |
| mogamulizumab | not strong | significant loss of only effector Tregs (Fr. II) | – | – |
